Measured values: patent US20100093863A1, “USE OF CITRULLINE FOR PREVENTING AN INCREASE IN PROTEIN CARBONYLATION AND FOR TREATING DISEASES RESULTING THEREFROM” (UNIVERSITE PARIS DESCARTESURE, priority 2007, published 2010)

What was measured:
[1] = system: carbonylation of muscle proteins; assay: Carbonylation of muscle proteins (DNPH assay, tibialis anterior) in malnourished-renourished rats; type: in vivo, Sprague-Dawley rats; details: rats aged 19 months, 12 weeks restricted diet, renourished one week with diet enriched with citrulline (5 g/kg/d); FIG. 1 column 4 versus column 3
Description: (§1) Male Sprague-Dawley rats (Charles River Laboratoires, L'Arbresles, France) aged 19 months are placed in individual cages in a thermostatically-controlled atmosphere (23°±1° C.) and subjected to a 12-h light-darkness cycle (darkness from 8 h to 20 h). The manager of the programme is authorized (no. 75.522) by the Ministry of Agriculture and Forestry to carry out this type of experiment. Moreover, the use and the treatment of the laboratory animals comply with legislation (D2001-486) and are in accordance with European legislation (Official Journal of the European Community L358 Dec. 18, 1986).
(§2) The rats are acclimatized for 2 weeks during which spontaneous food consumption is measured. […]
The processes of oxidation of the proteins affecting the structure of the amino acids which comprise them are complex and all give rise to the formation of carbonyl groups. For this reason it was decided to carry out an overall evaluation of the oxidation of the muscle proteins by quantifying the carbonylated derivatives from a sample of 300 mg of tibialis anterior. […] The solubilized proteins are separated into two equal fractions in order to have two cups containing the same quantity of proteins (1-1.5 mg/ml). One of the cups serves as a blank and the other to quantify the carbonyl groups. […]

[2] = system: carbonylation of the cerebral proteins; assay: Carbonylation of cerebral proteins (DNPH assay, brain) in elderly rats; type: in vivo, Sprague-Dawley rats
Description: as §1, with “Laboratoires, L′Arbresles,” for “Laboratoires, L'Arbresles,”, “aged 25” for “aged 19”, “(23°±1° C.),” for “(23°±1° C.)”, “a 12-hour” for “a 12-h”
as §2
AANE group (n=4): the animals receive a standard diet rendered isonitrogenous compared with that of the CIT group by the addition of non-essential amino acids (alanine, asparagine, glycine, serine, histidine, and proline in equimolar quantities) for 1 month. […]
The processes of oxidation of the proteins affecting the structure of the amino acids which comprise them are complex and all give rise to the formation of carbonyl groups. For this reason it was decided to carry out an overall evaluation of the oxidation of the muscle proteins by quantifying the carbonylated derivatives from a sample of 1 g of brain. […] One of the cups serves as a blank and the other to quantify the carbonyl groups. […]

Q: With `NC(=O)NCCCC(N)C(=O)O` (stereo not drawn) [citrulline, 2-amino-5-(carbamoylamino)pentanoic acid] as the molecule, how does the “increase in the carbonylation of muscle proteins accompanying malnutrition-renutrition” value [1] read?
A: Its value is “this phenomenon disappears completely”.

Q: What about the Carbonylated proteins ([2]; brain of rats aged 25 months, enriched standard diet for 1 month (CIT 1 g/kg/d; AANE isonitrogenous), Average ± ASD) of the same molecule?
A: The Carbonylated proteins was 164 ± 12 µmol/g.

Q: What about the “decrease in the carbonylation of the cerebral proteins” value ([2]; elderly healthy rats, diet enriched with CIT (1 g/kg/d, 1 month) versus AANE group) of the same molecule?
A: The value was roughly 10%.
